The values below are quoted from earlier work in article PMC4224523 (Molecular Pharmaceutics, 2014).

For this data set the following is noted: general statement in introduction.

For `FC1(F)OC(F)(F)C(F)(F)OC(F)(F)C(F)(F)OC(F)(F)C(F)(F)OC(F)(F)C(F)(F)OC1(F)F` [PFCE, Perfluoro-15-crown-5-ether], the solubility in solvents result is reported as “insoluble in most solvents”.
